Measurements reported in patent US11197857B2, “Combination therapy” (GlaxoSmithKline Intellectual Property Development Limited, priority 2016, dated 2021).

Tests used:
[1] = test system: human renal cell carcinoma xenografts (ACHN); test: ACHN xenograft efficacy; assay type: in vivo, mouse
HL-60 = test: 6-day growth-death assay (Cell Titer Glo); assay type: cell-based, human
Experimental: (§1) The growth of all cell lines was evaluated over time across a wide range of seeding densities to identify conditions that permitted proliferation throughout the entire 6-day assay. Cells were plated at the optimal seeding density and after overnight incubation, a 20-point 2-fold titration of compound was added and plates were incubated for 6 days. A replicate plate of cells was harvested at the time of compound addition to quantify the starting number of cells (T0). Values obtained after the 6 day treatment were expressed as a function of the T0 value and plotted against compound concentration. The T0 value was normalized to 100% and represents the number of cells at the time of compound addition. The data were fit with a 4 parameter equation to generate a concentration response curve and the growth IC50 (gIC50) was determined. The gIC50 is the midpoint of the ‘growth window’, the difference between the number of cells at the time of compound addition (To) and the number of cells after 6 days (DMSO control). The growth-death assay can be used to quantify the net population change, clearly defining cell death (cytotoxicity) as fewer cells compared to the number at the time of compound addition (To).

G-402 = test: 6-day growth-death assay (Cell Titer Glo); assay type: cell-based, human; conditions: G-402, Leiomyoblastoma
Experimental: as §1

MOLM-13 = test: 6-day growth-death assay (Cell Titer Glo); assay type: cell-based, human; conditions: MOLM-13, subtype M5
Experimental: as §1

SHI-1 = test: 6-day growth-death assay (Cell Titer Glo); assay type: cell-based, human; conditions: SHI-1, subtype M5
Experimental: as §1

G-401 = test: 6-day growth-death assay (Cell Titer Glo); assay type: cell-based, human; conditions: G-401, Wilm's
Experimental: as §1

MOLM-16 = test: 6-day growth-death assay (Cell Titer Glo); assay type: cell-based, human; conditions: MOLM-16, subtype M0
Experimental: as §1

SKM-1 = test: 6-day growth-death assay (Cell Titer Glo); assay type: cell-based, human; conditions: SKM-1, subtype M5
Experimental: as §1

MV-4-11 = test: 6-day growth-death assay (Cell Titer Glo); assay type: cell-based, human; conditions: MV-4-11, subtype M5
Experimental: as §1

CAKI-2 = test: 6-day growth-death assay (Cell Titer Glo); assay type: cell-based, human; conditions: CAKI-2, ccRCC
Experimental: as §1

NOMO-1 = test: 6-day growth-death assay (Cell Titer Glo); assay type: cell-based, human; conditions: NOMO-1, subtype M5
Experimental: as §1

OCI-AML3 = test: 6-day growth-death assay (Cell Titer Glo); assay type: cell-based, human
Experimental: as §1

769-P = test: 6-day growth-death assay (Cell Titer Glo); assay type: cell-based, human; conditions: ccRCC
Experimental: as §1

A498 = test: 6-day growth-death assay (Cell Titer Glo); assay type: cell-based, human; conditions: A498, ccRCC
Experimental: as §1

TF-1 = test: 6-day growth-death assay (Cell Titer Glo); assay type: cell-based, human; conditions: TF-1, subtype M6
Experimental: as §1

SW156 = test: 6-day growth-death assay (Cell Titer Glo); assay type: cell-based, human; conditions: SW156, ccRCC
Experimental: as §1

Breast cancer cell lines = test: 6-day growth-death assay (Cell Titer Glo); assay type: cell-based, human; conditions: 29 cell lines
AML cell lines = test: 6-day growth-death assay (Cell Titer Glo); assay type: cell-based, human
[2] = test system: Prostate cancer cell lines; test: 6-day growth-death assay (Cell Titer Glo); assay type: cell-based, human; conditions: 4 cell lines
IGR-1 = test: 6-day growth-death assay (Cell Titer Glo); assay type: cell-based, human
Excerpt: (§2) Cell Titer Glo was used to measure growth inhibition as previously described.

HT144 = test: 6-day growth-death assay (Cell Titer Glo); assay type: cell-based, human
Excerpt: as §2

SK-MEL-5 = test: 6-day growth-death assay (Cell Titer Glo); assay type: cell-based, human
Excerpt: as §2

MDA-MB-435S = test: 6-day growth-death assay (Cell Titer Glo); assay type: cell-based, human
Excerpt: as §2

SK-MEL-2 = test: 6-day growth-death assay (Cell Titer Glo); assay type: cell-based, human
Excerpt: as §2

A375 = test: 6-day growth-death assay (Cell Titer Glo); assay type: cell-based, human
Excerpt: as §2

COLO741 = test: 6-day growth-death assay (Cell Titer Glo); assay type: cell-based, human
Excerpt: as §2

[3] = test system: non-TNBC breast cancer cell lines; test: cells; conditions: Homo sapiens, read-out: Median gIC50
Experimental: Cell lines representing triple negative breast cancer (TNBC) are shown in orange; other subtypes are in blue.
as §1

rat 14-day MTD = conditions: […] mg/kg
NSCLC cell lines = test: 6-day growth-death assay (Cell Titer Glo); assay type: cell-based, human; conditions: 25 cell lines
[4] = test system: 196 human cancer cell lines; test: 6-day growth-death assay (Cell Titer Glo); assay type: cell-based
[5] = Homo sapiens, read-out: Median gIC50

CCOCC1(COCC)CCC(c2n[nH]cc2CN(C)CCNC)CC1 [Compound A]
Regression ([1]; 300 mg/kg QD oral, day 59): (2%) | Body weight Difference (vs. vehicle) ([1]; 300 mg/kg QD, day 59): −4% | Regression ([1]; 450 mg/kg QD oral, day 59): (15%) | Body weight Difference (vs. vehicle) ([1]; 450 mg/kg QD, day 59): −7% | Regression ([1]; 600 mg/kg QD oral, arm terminated at day 31): (6%) | Body weight Difference (vs. vehicle) ([1]; 600 mg/kg QD, arm terminated at day 31): −17% | body weight loss ([1]; 600 mg/kg daily): Significant body weight loss | Body weight Difference (vs. vehicle) ([1]; […] mg/kg QD, day 59): −3% | doses at which regressions were observed ([1]; oral, daily, up to 59 days): ≥ 300 mg/kg | Ymin-T0 (HL-60; HL-60, subtype M3): −33.4 | gIC100 (HL-60; HL-60, subtype M3): 6.38 ± 12.83 µM | IC50 (HL-60; Homo sapiens, HL-60, read-out: gIC50): 20 ± 10 nM | Ymin-T0 (G-402): 92.6 | Ymin-T0 (MOLM-13): −100.0 | gIC100 (MOLM-13): 8.64 ± 0.39 µM | Ymin-T0 (SHI-1): 292.0 | gIC100 (SHI-1): 29.33 ± 0.02 µM | Ymin-T0 (G-401): 353.7 | Ymin-T0 (MOLM-16): −68.6 | gIC100 (MOLM-16): 9.69 ± 10.58 µM | Ymin-T0 (SKM-1): −19.1 | gIC100 (SKM-1): 11.61 ± 5.52 µM | Ymin-T0 (MV-4-11): 565.6 | gIC100 (MV-4-11): 14.55 ± 4.27 µM | Ymin-T0 (CAKI-2): 169.6 | Ymin-T0 (NOMO-1): 259.1 | gIC100 (NOMO-1): 29.33 ± 0.00 µM | IC50 (OCI-AML3; Homo sapiens, OCI-AML-3, read-out: gIC50): 870 ± 140 nM | Ymin-T0 (OCI-AML3; OCI-AML3, subtype M4): 523.2 | gIC100 (OCI-AML3; OCI-AML3, subtype M4): 29.33 ± 0.00 µM | Ymin-T0 (769-P): 119.0 | Ymin-T0 (A498): 313.4 | Ymin-T0 (TF-1): 788.1 | gIC100 (TF-1): 29.33 ± 0.00 µM | Ymin-T0 (SW156): 346.7 | % Cytotoxic (cell lines with negative Ymin-T0) (Breast cancer cell lines): 10% | % gIC100 < 2 μM (share of cell lines) (Breast cancer cell lines): 0% | Median gIC100 (Breast cancer cell lines): 29.36 µM | number of cell lines in which cytotoxicity was induced (AML cell lines; 10 AML cell lines): 5 | % Cytotoxic (cell lines with negative Ymin-T0) (AML cell lines; AML, 10 cell lines): 50% | % gIC100 < 2 μM (share of cell lines) (AML cell lines; AML, 10 cell lines): 0% | Median gIC100 (AML cell lines; AML, 10 cell lines): 16.72 µM | IC50 (AML cell lines; [5]): 540 nM | % Cytotoxic (cell lines with negative Ymin-T0) [2]: 0% | % gIC100 < 2 μM (share of cell lines) [2]: 0% | Median gIC100 [2]: 29.34 µM | Ymin-T0 (IGR-1): 507.0 | gIC100 (IGR-1): 29.33 ± 0.00 µM | Ymin-T0 (HT144): 124.9 | gIC100 (HT144): 29.33 ± 0.00 µM | IC50 (SK-MEL-5; Homo sapiens, SK-MEL-5, read-out: gIC50): 90 ± 30 nM | Ymin-T0 (SK-MEL-5; SK-MEL-5): 31.8 | gIC100 (SK-MEL-5; SK-MEL-5): 27.09 ± 3.92 µM | Ymin-T0 (MDA-MB-435S): 19.1 | gIC100 (MDA-MB-435S): 29.33 ± 0.00 µM | Ymin-T0 (SK-MEL-2): 35.9 | gIC100 (SK-MEL-2): 22.37 ± 12.11 µM | Ymin-T0 (A375; A375): 91.9 | gIC100 (A375; A375): 29.33 ± 0.00 µM | IC50 (A375; Homo sapiens, A-375, read-out: gIC50): 50 ± 30 nM | Ymin-T0 (COLO741): 12.5 | gIC100 (COLO741): 28.55 ± 1.40 µM | IC50 [3]: 6800 nM | Cave (total AUC or exposure) at MTD (rat 14-day MTD): 2100 nM | % Cytotoxic (cell lines with negative Ymin-T0) (NSCLC cell lines): 16% | % gIC100 < 2 μM (share of cell lines) (NSCLC cell lines): 0% | Median gIC100 (NSCLC cell lines): 29.33 µM | IC50 [4, 5]: 2120 nM | % Cytotoxic (cell lines with negative Ymin-T0) ([4]; Total, 196 cell lines): 23% | % gIC100 < 2 μM (share of cell lines) ([4]; Total, 196 cell lines): 4% | Median gIC100 ([4]; Total, 196 cell lines): 29.33 µM
